Tested on: Crofton weed
Test: Needle puncture pathogenic test on slightly wounded leaf of Crofton weed
Assay type: in vivo
Details: 50 μg/mL, 25° C., natural light; for Time of Disease spot / Average diameter of spot after 24 h: Crofton weed leaf; for Time / Average diameter of the damage spot after 24 h: salts, Crofton weed
Experimental: 3-acetyl-5-sec-butyl-4-hydroxy-3-pyrrolin-2-one analogs were dissolved in a small amount of methanol and diluted with water to a concentration of 5-100 μg/g. A pathogenic test was conducted by placing the toxic liquid on the slightly wounded leaf of Crofton weed with a needle. The test has shown that the pathogenic capability of 3-acetyl-5-sec-butyl-4-hydroxy-3-pyrrolin-2-one analogs with respect to Crofton weed increases with the increase of concentration. The spot diameter caused on the leaf of Crofton weed after 24 hours was 2 mm at 50 μg/g.
3-acetyl-5-sec-butyl-4-hydroxy-3-pyrrolin-2-one analogue (Table 3, compounds 10-57) was dissolved in small amount of methanol. The solution was then diluted with distilled water to a concentration of 50 μg/mL. Methanol solution with same concentration and pure distilled water were used as control of the experiment. A pathogenic test was conducted by placing the toxic liquid on the slightly wounded leaf of Crofton weed with a needle. The experiment was carried out at 25° C. under the natural light and each test was repeated 6 times. It was measure the diameter of the spot after 24 h. […] The size of the side chain also has an effect on their activity.
Fourteen salts of 3-acetyl-5-sec-butyl-4-hydroxy-3-pyrrolin-2-one analogs were dissolved in small amount of methanol and diluted with distilled water to a concentration of 50 μg/mL. Methanol/water mixture was also prepared and used as control. Needle puncture method was used for the test on the small pieces of Crofton weed. Each treatment was repeated six times or more. The test samples were kept under natural light at 25° C. for 24 hours. The diameters of damaged spot of the plant leaves were measured by vernier caliper.

Row | Compound | Time of Disease spot [h] | Average diameter of spot after 24 h [mm] | Time [h] | Average diameter of the damage spot after 24 h [mm]
1 | CCCCC1(C)NC(=O)C(C(C)=O)=C1O (centres unmarked) [Compound 29] | 12.1 ± 3.75 | 5.77 ± 1.15 | – | –
2 | CCCC(C)C1NC(=O)C(C(C)=O)=C1O (centres unmarked) [Compound 31] | 10.8 ± 2.00 | 5.93 ± 1.35 | – | –
3 | CC(=O)C1=C(O)C(CCC(=O)O)NC1=O (centres unmarked) [Compound 35] | 26.4 ± 0.12 | 1.27 ± 0.02 | – | –
4 | CC(=O)C1=C(O)C(CC(N)=O)NC1=O (centres unmarked) [Compound 36] | 21.9 ± 0.23 | 1.54 ± 0.07 | – | –
5 | CC(=O)C1=C(O)C(CCC(N)=O)NC1=O (centres unmarked) [Compound 37] | 24 ± 0.08 | 1.64 ± 0.25 | – | –
6 | CCC(=O)C1=C(O)C(C(C)CC)NC1=O (centres unmarked) [Compound 42] | 19.4 ± 2.50 | 2.24 ± 0.45 | – | –
7 | CCC(C)C1NC(=O)C(C(=O)NCc2ccccc2)=C1O (centres unmarked) [Compound 49] | 23.2 ± 2.86 | 2.47 ± 0.08 | – | –
8 | CCC1NC(=O)C(C(C)=O)=C1O.[K] (centres unmarked) [f, Potassium salt of 3-acetyl-5-ethyl-4-hydroxy-1H-pyrrol-2(5H)-one] | – | – | 14.2 ± 2.00 | 3.72 ± 0.28
9 | CCCC(C)C1NC(=O)C(C(C)=O)=C1[O-].[Na+] (centres unmarked) [m, Sodium salt of 3-acetyl-4-hydroxy-5-(Pentan-2-yl)-1H-pyrrol-2(5H)-one] | – | – | 8.5 ± 2.00 | 8.27 ± 1.72
10 | Ammonium salt of 3-acetyl-5-ethyl-4-hydroxy-1H-pyrrol-2(5H)-one | – | – | 10.3 ± 1.50 | 4.97 ± 1.01
11 | Calcium salt of 3-acetyl-5-ethyl-4-hydroxy-1H-pyrrol-2(5H)-one [g] | – | – | 18.7 ± 3.00 | 2.29 ± 0.19
12 | Copper salt of 3-acetyl-5-ethyl-4-hydroxy-1H-pyrrol-2(5H)-one | – | – | 21.6 ± 3.05 | 1.22 ± 0.25
13 | Iron salt of 3-acetyl-5-ethyl-4-hydroxy-1H-pyrrol-2(5H)-one [k] | – | – | 17.2 ± 0.95 | 1.72 ± 0.15
14 | Magnesium (II) salt of 3-acetyl-5-ethyl-4-hydroxy-1H-pyrrol-2(5H)-one | – | – | 17.5 ± 1.50 | 2.88 ± 0.10
15 | Manganese salt of 3-acetyl-5-ethyl-4-hydroxy-1H-pyrrol-2(5H)-one [i] | – | – | 14.3 ± 3.15 | 3.24 ± 0.33
16 | Sodium salt of 3-acetyl-4-hydroxy-1H-pyrrol-2(5H)-one | – | – | 26 ± 7.30 | 1.34 ± 0.08
17 | Sodium salt of 3-acetyl-4-hydroxy-5-(prop-1-enyl)-1H-pyrrol-2(5H)-one | – | – | 16.8 ± 1.85 | 2.42 ± 0.05
18 | Sodium salt of 3-acetyl-4-hydroxy-5-methyl-1H-pyrrol-2(5H)-one [b] | – | – | 19.5 ± 0.5 | 2.21 ± 0.18
19 | Sodium salt of 3-acetyl-4-hydroxy-5-propyl-1H-pyrrol-2(5H)-one | – | – | 10.2 ± 2.50 | 5.07 ± 0.11
20 | Sodium salt of 3-acetyl-5-ethyl-4-hydroxy-1H-pyrrol-2(5H)-one | – | – | 14.5 ± 1.8 | 3.11 ± 0.54
21 | Zinc salt of 3-acetyl-4-hydroxy-5,5-dimethyl-1H-pyrrol-2(5H)-one | – | – | 18.2 ± 2.50 | 2.63 ± 0.06
22 | Zinc salt of 3-acetyl-5-ethyl-4-hydroxy-1H-pyrrol-2(5H)-one [j] | – | – | 15.1 ± 4.00 | 2.91 ± 0.02
